{"source": "BindingDB's records for doi:10.1021/acs.jmedchem.7b00076", "about": "(University of Chinese Academy of Sciences, 2017)", "key": {"[1]": {"experiment": "Inhibition of CCDC6-fused RET (unknown origin) expressed in mouse Ba/F3 cells assessed as inhibition of cell proliferation after 72 hrs by cell counting kit-8 assay"}, "[2]": {"experiment": "Inhibition of FGFR1 in human NCI-H1581 cells assessed as inhibition of cell proliferation after 72 hrs by cell counting kit-8 assay"}, "[3]": {"experiment": "Inhibition of TEL-fused KDR (unknown origin) expressed in mouse Ba/F3 cells assessed as inhibition of cell proliferation after 72 hrs by cell counting kit-8 assay"}, "[4]": {"experiment": "Inhibition of FGFR1OP2 fused FGFR1 in human KG1 cells assessed as inhibition of cell proliferation after 72 hrs by cell counting kit-8 assay"}}, "data": [{"smiles": "Cc1n[nH]c2ccc(-c3cc(N[C@@H](CO)c4ccccc4)cnc3-c3cc(F)ccc3O)cc12", "values": [{"measurement": "IC50", "setting": "[1]", "result": 316, "unit": "nM"}, {"measurement": "IC50", "setting": "[2]", "result": 391, "unit": "nM"}, {"measurement": "IC50", "setting": "[3]", "result": 9.8, "unit": "nM"}, {"measurement": "IC50", "setting": "[4]", "result": 15, "unit": "nM"}]}]}
